In ChEMBL document CHEMBL3045353, “Identification of new limonoids from Swietenia and their biological activity against insects” (Pest Manag Sci, 2010):
Values after ≈ are worked out from the molar mass of the structure shown.

Tests used:
[1] = test system: Manduca sexta; test: Growth inhibition of neonate larvae of Manduca sexta at 250 mg/l after 6 days relative to control; type: functional; conditions: 144 h, read-out: GI
[2] = test system: Heliothis virescens; test: Growth inhibition of neonate larvae of Heliothis virescens (tobacco budworm) at 250 mg/l after 6 days relative to control; type: functional; conditions: 144 h, read-out: GI
[3] = test system: Spodoptera frugiperda; test: Antifeedant activity against fourth-instar larvae of Spodoptera frugiperda (fall armyworm) fed on compound treated savanna grass for 18 hr; type: functional, organism-based
[4] = test system: Helicoverpa zea; test: Growth inhibition of neonate larvae of Helicoverpa zea (corn earworm)at 250 mg/l after 6 days relative to control; type: functional; conditions: 144 h, read-out: GI
[5] = test system: Spodoptera frugiperda; test: Phagostimulant activity in fourth-instar larvae of Spodoptera frugiperda (fall armyworm) fed on compound treated savanna grass for 18 hr; type: ADME, organism-based; conditions: in vivo, po

SMILES | inhibition of growth at 250 µg/mL [1] | inhibition of growth at 250 µg/mL [2] | DC50 [3] | inhibition of growth at 250 µg/mL [4] | Activity [5]
C/C=C(\C)OC(=O)[C@@H]1[C@@H]2C=C3[C@@H]4CC(=O)O[C@@H](c5ccoc5)[C@]4(C)CC[C@@H]3[C@@](C)(C2=O)[C@@H]([C@H](C(=O)OC)C(=O)Oc2ccccc2)C1(C)C [6-O-BENZOYLSWIETENINE] | 32.8% | 28.7% | 406 µg/mL (≈ 604 µM) | 10.2% | 
COC(=O)[C@H](C(=O)Oc1ccccc1)[C@H]1C(C)(C)[C@H](C(=O)Oc2ccccc2)[C@@H]2C=C3[C@@H]4CC(=O)O[C@@H](c5ccoc5)[C@]4(C)CC[C@@H]3[C@@]1(C)C2=O [3,6-O,O-DIBENZOYL-3-DETIGLOYLISOSWIETENINE] | 25.7% | 18.6% |  | 49.2% | Toxic
COC(=O)[C@H](O)[C@H]1C(C)(C)[C@H](O)[C@@H]2C=C3[C@@H]4CC(=O)O[C@@H](c5ccoc5)[C@]4(C)CC[C@@H]3[C@@]1(C)C2=O [3-DETIGLOYLISOSWIETENINE] | 17.8% | 56% | 101 µg/mL (≈ 208 µM) | 15.2% | 
CC1(C)[C@H](O)[C@@H]2CC3=C4CC(=O)O[C@@H](c5ccoc5)[C@]4(C)CC[C@@H]3[C@@](C)(C2=O)[C@H]1[C@@H](O)C(=O)OO [DEMETHYLISOSWIETENOLIDE] | 9.01% | 32.6% | 254 µg/mL (≈ 520 µM) | 24% | 
CCOC(=O)[C@@H]1[C@@H]2C=C3[C@@H]4CC(=O)O[C@@H](c5ccoc5)[C@]4(C)CC[C@@H]3[C@@](C)(C2=O)[C@@H]([C@@H](O)C(=O)OC)C1(C)C [3-O-PROPIONYL-3-DETIGLOYLISOSWIETENINE] | 12.5% | 32% | 81.9 µg/mL (≈ 151 µM) | 13.5% | 
CCOC(=O)[C@@H](C(=O)OC)[C@H]1C(C)(C)[C@H](O)[C@@H]2CC3=C4CC(=O)O[C@@H](c5ccoc5)[C@]4(C)CC[C@@H]3[C@@]1(C)C2=O [6-O-PROPIONYLSWIETENOLIDE] | 21.4% | 62.6% | 57.1 µg/mL (≈ 105 µM) | 27.1% | 
COC(=O)[C@H](O)[C@H]1C(C)(C)[C@H](C(=O)Oc2ccccc2)[C@@H]2CC3=C4CC(=O)O[C@@H](c5ccoc5)[C@]4(C)CC[C@@H]3[C@@]1(C)C2=O [3-O-BENZOYLSWIETENOLIDE] |  |  | 244 µg/mL (≈ 414 µM) |  | 
COC(=O)[C@H](C(=O)Oc1ccccc1)[C@H]1C(C)(C)[C@H](O)[C@@H]2CC3=C4CC(=O)O[C@@H](c5ccoc5)[C@]4(C)CC[C@@H]3[C@@]1(C)C2=O [6-O-BENZOYLSWIETENOLIDE] | 43.8% | 27.1% | 73.2 µg/mL (≈ 124 µM) | 39.5% | 
C/C=C(\C)OC(=O)[C@H]1[C@@H]2C(=O)[C@](C)([C@H]3CC[C@]4(C)[C@@H](CC(=O)O[C@H]4c4ccoc4)[C@]34O[C@@H]24)[C@@H](C(O)C(=O)OC)C1(C)C (stereo partly specified) [SWIETEMAHONIN G] | 32.8% | 44.3% | 13.8 µg/mL (≈ 23.6 µM) | 48.1% | 
CC1(C)[C@H](O)[C@@H]2C=C3[C@@H]4CC(=O)O[C@@H](c5ccoc5)[C@]4(C)CC[C@@H]3[C@@](C)(C2=O)[C@H]1[C@@H](O)C(=O)O [DEMETHYL-3-DETIGLOYLISOSWIETENINE] | 14.1% | 10.2% | 214 µg/mL (≈ 454 µM) | 21.6% | 
CCOC(=O)[C@@H]1[C@@H]2CC3=C4CC(=O)O[C@@H](c5ccoc5)[C@]4(C)CC[C@@H]3[C@@](C)(C2=O)[C@@H]([C@@H](O)C(=O)OC)C1(C)C [3-O-PROPIONYLSWIETENOLIDE] | 18.3% | 41.7% | 53.8 µg/mL (≈ 99.1 µM) | 16.6% | 
